Laboratory results reported in US6596687B1, “Cell adhesion inhibitors” (Biogen, Inc., priority 1995, dated 2003).
Numbered stars: 1 amine (or outer) side, 2 acyl side, 3 side chain; on linkers, the order of the positions; unused ones are H or OH. Square brackets hold non-standard residues; d marks the D form. Peptide text beside a SMILES is read from it. * marks the point of attachment. X2 = O=C(Cc1ccc(N[*:1])cc1)[*:2]; PhAc = O=C(Cc1ccccc1)*; CO = O=C([*:1])[*:2]; Bz = O=C(c1ccccc1)*; NHPh = c1ccc(N*)cc1; Bn = c1ccc(C*)cc1; NHBu = CCCCN*

What follows are compounds tested against T1, VLA4 (Homo sapiens, UniProt P05556+P13612) (assay: Inhibition of VLA4-dependent adhesion of Ramos cells to BSA-CS1). Conditions: Ramos cells, BSA-CS1 coated wells, 2 mM MnCl2, 30 minutes at room temperature; read-out: IC50.
T1 construct: endogenous in cells; host or cells: Ramos cells
T1 sequence (P13612 34-1032): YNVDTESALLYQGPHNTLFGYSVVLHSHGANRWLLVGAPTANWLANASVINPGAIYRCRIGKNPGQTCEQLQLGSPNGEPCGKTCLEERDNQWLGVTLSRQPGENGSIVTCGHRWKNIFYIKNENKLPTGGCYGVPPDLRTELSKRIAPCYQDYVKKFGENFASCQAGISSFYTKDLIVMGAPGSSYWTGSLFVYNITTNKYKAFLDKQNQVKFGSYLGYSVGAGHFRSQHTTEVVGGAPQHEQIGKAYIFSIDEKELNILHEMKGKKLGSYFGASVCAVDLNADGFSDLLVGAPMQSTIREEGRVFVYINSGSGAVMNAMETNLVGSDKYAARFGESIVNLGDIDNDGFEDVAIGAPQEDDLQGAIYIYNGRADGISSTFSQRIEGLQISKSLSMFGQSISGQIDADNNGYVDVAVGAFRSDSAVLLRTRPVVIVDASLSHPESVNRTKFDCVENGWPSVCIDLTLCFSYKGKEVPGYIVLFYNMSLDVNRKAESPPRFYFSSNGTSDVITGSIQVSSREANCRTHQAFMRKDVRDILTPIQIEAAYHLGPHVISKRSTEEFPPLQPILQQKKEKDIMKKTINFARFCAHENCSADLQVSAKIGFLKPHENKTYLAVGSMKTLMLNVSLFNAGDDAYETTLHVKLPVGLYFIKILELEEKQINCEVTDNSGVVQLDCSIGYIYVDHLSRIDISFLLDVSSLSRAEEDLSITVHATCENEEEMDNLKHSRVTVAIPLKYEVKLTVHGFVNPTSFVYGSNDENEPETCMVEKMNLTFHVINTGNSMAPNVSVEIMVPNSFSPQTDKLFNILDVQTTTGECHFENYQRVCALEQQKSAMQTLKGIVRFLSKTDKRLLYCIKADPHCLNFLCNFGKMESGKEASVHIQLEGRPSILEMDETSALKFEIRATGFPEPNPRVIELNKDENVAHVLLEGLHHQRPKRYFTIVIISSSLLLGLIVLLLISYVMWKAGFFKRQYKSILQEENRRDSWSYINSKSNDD
T1 sequence (P05556 21-798): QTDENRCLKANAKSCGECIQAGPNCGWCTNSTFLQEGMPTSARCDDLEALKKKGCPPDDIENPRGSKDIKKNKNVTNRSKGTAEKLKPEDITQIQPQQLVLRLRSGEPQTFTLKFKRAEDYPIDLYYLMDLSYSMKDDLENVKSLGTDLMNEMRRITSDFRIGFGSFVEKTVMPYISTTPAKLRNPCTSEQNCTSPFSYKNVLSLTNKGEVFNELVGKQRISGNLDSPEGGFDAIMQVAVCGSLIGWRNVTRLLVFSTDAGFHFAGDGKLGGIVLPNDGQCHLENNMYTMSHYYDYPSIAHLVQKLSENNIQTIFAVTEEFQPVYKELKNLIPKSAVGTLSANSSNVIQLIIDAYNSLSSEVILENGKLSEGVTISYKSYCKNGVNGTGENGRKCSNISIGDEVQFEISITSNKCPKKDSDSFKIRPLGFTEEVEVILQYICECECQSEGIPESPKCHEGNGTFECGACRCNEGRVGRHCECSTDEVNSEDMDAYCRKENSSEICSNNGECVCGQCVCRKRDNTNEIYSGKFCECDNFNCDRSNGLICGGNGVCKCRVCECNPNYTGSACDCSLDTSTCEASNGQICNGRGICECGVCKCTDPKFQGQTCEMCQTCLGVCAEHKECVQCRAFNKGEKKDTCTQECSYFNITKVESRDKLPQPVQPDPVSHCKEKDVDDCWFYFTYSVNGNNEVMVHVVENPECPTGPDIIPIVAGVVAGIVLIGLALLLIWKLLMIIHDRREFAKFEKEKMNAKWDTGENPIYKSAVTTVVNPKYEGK
Type: cell-based
Summary of the method: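 BCECF-AM-labelled Ramos cells in Tris buffer pH 7.4 with 2 mM MnCl2 were added with compound to wells coated with BSA-conjugated Cys-Tyr-CS1 peptide (1 μg/mL). Cells and compound were incubated for 30 min at room temperature, in triplicate. Inhibition was quantified from bound fluorescence against no-compound controls, with uncoated wells used for nonspecific binding.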

IC50 [µM] | SMILES
> 10 | CC(C)C[C@H](NC(=O)c1ccc2ccccc2n1)C(=O)N[C@@H](CC(=O)O)C(=O)N[C@@H](CC(=O)O)C(=O)O [Compound 160]
> 10 | CC(C)CNC(=O)[C@H](CC(=O)O)NC(=O)[C@H](CC(C)C)NC(=O)CCCc1ccccc1 [Compound 161]
> 10 | CC(C)CNC(=O)[C@H](CC(=O)O)NC(=O)[C@H](CC(C)C)NC(=O)CCc1ccccc1 [Compound 162]
> 10 | CC(C)CNC(=O)[C@H](CC(=O)O)NC(=O)[C@H](CC(C)C)NC(=O)CNC(=O)c1ccccc1 [Compound 163]
0.05 to 10 | CNC(=O)[C@@H](NC(=O)[C@H](CC(=O)O)NC(=O)[C@H](CC(C)C)NC(=O)c1ccc2ccccc2n1)C(C)C [Compound 164]
> 10 | COc1ccc(C(=O)N[C@@H](CC(C)C)C(=O)N[C@@H](CC(=O)O)C(=O)NCC(C)C)cc1 [Compound 165]
> 10 | COC(=O)[C@@H](NC(=O)[C@H](CC(=O)O)NC(=O)[C@H](CC(C)C)NC(=O)CCCc1ccccc1)C(C)C [Compound 166]
> 10 | COC(=O)[C@H](CCSC)NC(=O)[C@@H](NC(=O)[C@H](CC(=O)O)NC(=O)[C@H](CC(C)C)NC(=O)OC(C)(C)C)C(C)C [Compound 167] (HELM PEPTIDE1{[CC(C)(C)OC(=O)[*:2]].L.D.V.M.[CO[*:1]]}$$$$V2.0)
0.05 to 10 | COC(=O)[C@H](CCSC)NC(=O)[C@@H](NC(=O)[C@H](CC(=O)O)NC(=O)[C@H](CC(C)C)NC(=O)c1ccc2ccccc2n1)C(C)C [Compound 168] (HELM PEPTIDE1{[O=C(c1ccc2ccccc2n1)[*:2]].L.D.V.M.[CO[*:1]]}$$$$V2.0)
> 10 | CCCCNC(=O)N[C@@H](CC(=O)O)C(=O)N[C@H](C(=O)OC)C(C)C [Compound 169] ({NHBu-CO}-Asp-Val-OMe)
> 10 | COC(=O)[C@@H](NC(=O)[C@H](CC(=O)O)NC(=O)[C@H](CC(C)C)NC(=O)c1ccc2ccccc2n1)[C@@H](C)O [Compound 170]
> 10 | CC(C)CNC(=O)[C@H](CC(=O)O)NC(=O)[C@H](CC(C)C)NC(=O)NC(C)(C)C [Compound 171]
> 10 | COC(=O)[C@@H](NC(=O)[C@H](CC(=O)O)NC(=O)CNC(=O)c1ccccc1)C(C)C [Compound 172] (HELM PEPTIDE1{[O=C(c1ccccc1)[*:2]].G.D.V.[CO[*:1]]}$$$$V2.0)
> 10 | COC(=O)C[C@H](NC(=O)CNC(=O)c1ccccc1)C(=O)N[C@H](C(=O)OC)C(C)C [Compound 173] (Bz-Gly-Asp(OMe)-Val-OMe)
0.05 to 10 | CC(C)C[C@H](NC(=O)c1ccc2ccccc2n1)C(=O)N[C@@H](CC(=O)O)C(=O)NC(CO)C(C)C (stereo partly shown) [Compound 174]
0.05 to 10 | CC(C)C[C@H](NC(=O)c1ccc2ccccc2n1)C(=O)N[C@@H](CC(=O)O)C(=O)N[C@H](C(=O)N1CCOCC1)C(C)C [Compound 175]
> 10 | COC(=O)[C@@H](NC(=O)[C@H](CC(=O)O)NC(=O)[C@H](CC(C)C)NC(=O)Cc1ccc(OC)cc1)[C@@H](C)O [Compound 176]
> 10 | COC(=O)[C@@H](NC(=O)[C@H](CC(=O)O)NC(=O)[C@H](CC(C)C)NS(=O)(=O)c1ccc(OC)cc1)[C@@H](C)O [Compound 177]
> 10 | CNC(=O)[C@@H](NC(=O)[C@H](CC(=O)O)NC(=O)[C@H](CC(C)C)N(C)C(=O)c1ccc2ccccc2n1)C(C)C [Compound 179]
0.05 to 10 | CNC(=O)[C@@H](NC(=O)[C@H](CC(=O)O)NC(=O)[C@H](CC(C)C)N(C)C(=O)Cc1ccccc1)C(C)C [Compound 180] (HELM PEPTIDE1{[O=C(Cc1ccccc1)[*:2]].[meL].D.V.[CN[*:1]]}$$$$V2.0)
> 10 | CNC(=O)[C@@H](NC(=O)[C@H](CC(=O)O)NC(=O)[C@H](CC(C)C)NC(=O)Cc1ccccc1)C(C)C [Compound 181] (HELM PEPTIDE1{[O=C(Cc1ccccc1)[*:2]].L.D.V.[CN[*:1]]}$$$$V2.0)
> 10 | CNC(=O)[C@@H](NC(=O)[C@H](CC(=O)O)NC(=O)[C@H](CC(C)C)N(C)C(=O)CCc1ccccc1)C(C)C [Compound 182] (HELM PEPTIDE1{[O=C(CCc1ccccc1)[*:2]].[meL].D.V.[CN[*:1]]}$$$$V2.0)
> 10 | CNC(=O)[C@@H](NC(=O)[C@H](CC(=O)O)NC(=O)[C@H](CCSC)NC(=O)Cc1ccccc1)C(C)C [Compound 183] (HELM PEPTIDE1{[O=C(Cc1ccccc1)[*:2]].M.D.V.[CN[*:1]]}$$$$V2.0)
> 10 | CNC(=O)[C@@H](NC(=O)[C@H](CC(=O)O)NC(=O)[C@H](CC(C)C)NC(=O)Nc1ccccc1)C(C)C [Compound 187] ({NHPh-CO}-Leu-Asp-Val-NHMe)
> 10 | CNC(=O)[C@@H](NC(=O)[C@H](CC(=O)O)NC(=O)[C@H](CC(C)C)N(C)C(=O)Cc1ccc(O)cc1)C(C)C [Compound 188]
> 10 | CNC(=O)[C@@H](NC(=O)[C@H](CC(=O)O)NC(=O)[C@H](CC(C)C)NS(=O)(=O)c1ccccc1)C(C)C [Compound 189]

IC50 [µM] | SMILES
> 10 | COC(=O)[C@@H](NC(=O)[C@H](CC(=O)O)NC(=O)[C@H](CC(C)C)NC(=O)Cc1ccccc1)[C@@H](C)OC [Compound 190] (PhAc-Leu-Asp-Thr(Me)-OMe)
> 10 | COC(=O)[C@@H](NC(=O)[C@H](CC(=O)O)NC(=O)[C@H](CC(C)C)NC(=O)Cc1ccccc1)[C@@H](C)O [Compound 191] (HELM PEPTIDE1{[O=C(Cc1ccccc1)[*:2]].L.D.T.[CO[*:1]]}$$$$V2.0)
0.05 to 10 | COC(=O)[C@@H](NC(=O)[C@H](CC(=O)O)NC(=O)[C@H](CC(C)C)NC(=O)Cc1ccccc1)[C@@H](C)OCc1ccccc1 [Compound 192] (PhAc-Leu-Asp-Thr(Bn)-OMe)
> 10 | COC(=O)[C@@H](NC(=O)[C@H](CC(=O)O)NC(=O)[C@H](CC(C)C)NC(=O)Cc1ccccc1)[C@@H](C)OC(C)=O [Compound 193] (PhAc-Leu-Asp-Thr(Ac)-OMe)
> 10 | CCCCOC(=O)[C@@H](NC(=O)[C@H](CC(=O)O)NC(=O)[C@H](CC(C)C)NC(=O)c1ccc2ccccc2n1)[C@@H](C)O [Compound 195]
> 10 | CCCCOC(=O)[C@@H](NC(=O)[C@H](CC(=O)O)NC(=O)[C@H](CC(C)C)NC(=O)Cc1ccccc1)C(C)C [Compound 196]
0.05 to 10 | COc1ccc(CNC(=O)[C@@H](NC(=O)[C@H](CC(=O)O)NC(=O)[C@H](CC(C)C)NC(=O)c2ccc3ccccc3n2)[C@@H](C)O)cc1 [Compound 197]
> 10 | CC(C)C[C@H](NC(=O)c1ccc2ccccc2n1)C(=O)N[C@@H](CC(=O)O)C(=O)NCCC(C)(C)C [Compound 198]
0.05 to 10 | CC(C)C[C@H](NC(=O)Cc1ccc(NC(=O)Nc2ccccc2)cc1)C(=O)N[C@@H](CC(=O)O)C(=O)N[C@H](C(=O)N1CCC[C@H]1C(N)=O)C(C)C [Compound 201] ({NHPh-CO}-[X2]LDVP-NH2)
< 0.05 | CC(C)C[C@H](NC(=O)Cc1ccc(NC(=O)Nc2ccccc2)cc1)C(=O)N[C@@H](CC(=O)O)C(=O)N[C@H](C(=O)O)C(C)C [Compound 203]
0.05 to 10 | CNC(=O)[C@@H](NC(=O)[C@H](CC(=O)O)NC(=O)[C@H](CC(C)C)NC(=O)Cc1ccc(NC(=O)Nc2ccccc2)cc1)C(C)C [Compound 204]
0.05 to 10 | CC(C)CNC(=O)[C@@H](NC(=O)[C@H](CC(=O)O)NC(=O)[C@H](CC(C)C)NC(=O)Cc1ccc(NC(=O)Nc2ccccc2)cc1)C(C)C [Compound 205]
0.05 to 10 | CC[C@H](C)[C@H](NC(=O)Cc1ccc(NC(=O)Nc2ccccc2)cc1)C(=O)N[C@@H](CC(=O)O)C(=O)N[C@H](C(=O)N1CCC[C@H]1C(N)=O)C(C)C [Compound 209] ({NHPh-CO}-[X2]IDVP-NH2)
0.05 to 10 | CC(C)CC(NC(=O)Cc1ccc(NC(=O)Nc2ccccc2)cc1)C(=O)NC(CC(=O)O)C(=O)NC(C(=O)N1CCCC1C(N)=O)C(C)C (stereo not shown) [Compound 211] ({NHPh-CO}-[X2]LDVP-NH2; configuration not given here)
0.05 to 10 | CC(C)C[C@H](NC(=O)Cc1ccc(NC(=O)Nc2ccccc2)cc1)C(=O)N[C@@H](CC(=O)O)C(=O)NCc1ccccc1 [Compound 213]
0.05 to 10 | CC(C)C[C@H](NC(=O)Cc1ccc(NC(=O)Nc2ccccc2)cc1)C(=O)N[C@@H](CC(=O)O)C(=O)N1CCOCC1 [Compound 214]
0.05 to 10 | CC(C)C[C@H](NC(=O)Cc1ccc(NC(=O)Nc2ccccc2)cc1)C(=O)N[C@@H](CC(=O)O)C(=O)NC(C)C [Compound 215]
0.05 to 10 | CC(C)CC(NC(=O)Cc1ccc(NC(=O)Nc2ccccc2)cc1)C(=O)NC(CC(=O)O)C(=O)NC1CCCCC1 (stereo not shown) [Compound 216]
0.05 to 10 | CC(C)CNC(=O)[C@H](CC(=O)O)NC(=O)[C@H](CC(C)C)NC(=O)Cc1ccc(NC(=O)Nc2ccccc2)cc1 [Compound 217]
0.05 to 10 | CC(C)C[C@H](NC(=O)Cc1ccc(NC(=O)Nc2ccccc2)cc1)C(=O)N[C@@H](CC(=O)O)C(=O)N1CCCCC1 [Compound 218]
< 0.05 | CSCC[C@H](NC(=O)Cc1ccc(NC(=O)Nc2ccccc2C)cc1)C(=O)N[C@@H](CC(=O)O)C(=O)N[C@H](C(N)=O)C(C)C [Compound 221]
< 0.05 | CSCC[C@H](NC(=O)[C@H](CC(=O)O)NC(=O)[C@H](CCSC)NC(=O)Cc1ccc(NC(=O)Nc2ccccc2C)cc1)C(N)=O [Compound 225]
< 0.05 | Cc1ccccc1NC(=O)Nc1ccc(CC(=O)N[C@@H](CC(C)C)C(=O)N[C@@H](CC(=O)O)C(=O)N[C@H](C(N)=O)[C@@H](C)O)cc1 [Compound 235]
< 0.05 | Cc1ccccc1NC(=O)Nc1ccc(CC(=O)N[C@@H](CC(C)C)C(=O)N[C@@H](CC(=O)O)C(=O)N[C@@H](Cc2c[nH]c3ccccc23)C(N)=O)cc1 [Compound 239]
< 0.05 | CC[C@H](C)[C@H](NC(=O)[C@H](CC(=O)O)NC(=O)[C@@H]1CCCN1C(=O)Cc1ccc(NC(=O)Nc2ccccc2C)cc1)C(N)=O [Compound 244]
< 0.05 | CSCC[C@H](NC(=O)[C@H](CC(=O)O)NC(=O)[C@@H]1CCCN1C(=O)Cc1ccc(NC(=O)Nc2ccccc2C)cc1)C(N)=O [Compound 247]
